In assay [1] the target is T1, ORAI1 (Homo sapiens, UniProt Q96D31). Format: cell-based. Conditions: HEK-293T, read-out: % inhibition at 100 μM.
In assay [2] the target is T1, ORAI1. Format: cell-based. The settings on record: HEK-293T, read-out: % inhibition at 100 μM. The source holds these as a separate data set.

Like-named read-outs stand apart in the source and are kept apart here.

T1 sequence (Q13586 23-685): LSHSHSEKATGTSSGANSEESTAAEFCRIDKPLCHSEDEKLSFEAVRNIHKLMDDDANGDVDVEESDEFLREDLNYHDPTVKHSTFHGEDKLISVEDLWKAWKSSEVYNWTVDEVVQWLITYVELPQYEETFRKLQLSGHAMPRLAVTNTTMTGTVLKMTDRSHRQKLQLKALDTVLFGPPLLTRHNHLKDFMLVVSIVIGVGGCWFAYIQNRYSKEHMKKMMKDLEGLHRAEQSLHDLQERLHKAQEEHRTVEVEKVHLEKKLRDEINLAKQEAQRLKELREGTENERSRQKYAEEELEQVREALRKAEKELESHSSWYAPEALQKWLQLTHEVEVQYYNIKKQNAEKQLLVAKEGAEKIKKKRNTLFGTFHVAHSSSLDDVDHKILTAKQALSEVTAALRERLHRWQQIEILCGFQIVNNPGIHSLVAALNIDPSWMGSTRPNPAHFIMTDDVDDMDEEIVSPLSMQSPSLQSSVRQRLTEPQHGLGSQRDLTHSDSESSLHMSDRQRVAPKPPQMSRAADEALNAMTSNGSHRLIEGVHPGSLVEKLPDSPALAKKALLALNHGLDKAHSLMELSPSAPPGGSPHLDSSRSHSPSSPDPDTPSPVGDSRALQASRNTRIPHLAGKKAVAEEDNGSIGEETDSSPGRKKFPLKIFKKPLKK
T1 sequence (Q96D31 whole entry): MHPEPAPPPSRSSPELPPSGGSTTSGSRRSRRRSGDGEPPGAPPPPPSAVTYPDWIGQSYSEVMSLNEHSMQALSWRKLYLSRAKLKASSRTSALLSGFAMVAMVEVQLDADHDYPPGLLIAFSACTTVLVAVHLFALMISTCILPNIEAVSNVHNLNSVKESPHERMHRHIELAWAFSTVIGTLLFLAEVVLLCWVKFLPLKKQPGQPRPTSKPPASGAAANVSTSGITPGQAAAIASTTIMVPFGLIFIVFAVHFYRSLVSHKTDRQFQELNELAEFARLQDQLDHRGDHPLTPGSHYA

One may read the inhibition as how much of the control response was suppressed. With `COc1ccc([C@H]2OC[C@H]3[C@@H]2CO[C@@H]3c2ccc(OC)c(OC)c2)cc1OC` [eudesmin], on ORAI1 [1], the inhibition at 100 µM is 24.7%. `COc1ccc([C@H]2OC[C@H]3[C@@H]2CO[C@@H]3c2cc(OC)c(OC)c(OC)c2)cc1OC` [magnolin]: the inhibition at 100 µM at ORAI1 [2] worked out at 29.7%.
